Laboratory results from patent US20210198277A1, “AMINE-SUBSTITUTED ARYL OR HETEROARYL COMPOUNDS” (Epizyme, Inc., priority 2016, published 2021).

Columns and labels:
human EHMT2 913-1193 = molecular target: T1, human EHMT2 913-1193 (Homo sapiens, UniProt Q96KQ7); test: EHMT2 enzyme assay on histone peptide substrate (EHMT2 PEP); format: biochemical; settings: Table III; read-out: EHMT2 PEP (IC50 μM)
T1 construct: recombinant purified human EHMT2 913-1193, Viva; purchased Viva
T1 sequence (Q96KQ7 913-1193): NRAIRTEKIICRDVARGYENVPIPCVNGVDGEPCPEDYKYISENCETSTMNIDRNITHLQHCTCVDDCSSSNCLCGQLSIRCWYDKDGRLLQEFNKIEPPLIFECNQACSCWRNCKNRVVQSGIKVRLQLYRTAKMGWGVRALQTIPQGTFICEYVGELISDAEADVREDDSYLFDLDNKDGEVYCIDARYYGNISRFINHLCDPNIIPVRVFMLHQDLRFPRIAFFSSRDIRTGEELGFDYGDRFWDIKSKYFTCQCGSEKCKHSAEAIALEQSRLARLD
Procedure, shortened: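 Inhibition is measured as reduced tritium incorporation into a biotinylated histone peptide from ^3H-SAM. The enzyme (0.031 nM) sees compound for 30 minutes before a 60-minute room-temperature reaction, which unlabeled SAM quenches prior to streptavidin Flashplate capture.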

EHMT1 = molecular target: T2, EHMT1 (Homo sapiens, UniProt Q9H9B1); test: EHMT1 enzyme assay on peptide substrate (EHMT1 PEP); format: biochemical; settings: Table III; read-out: EHMT1 PEP (IC50 μM)
T2 sequence (Q9H9B1 1-1298): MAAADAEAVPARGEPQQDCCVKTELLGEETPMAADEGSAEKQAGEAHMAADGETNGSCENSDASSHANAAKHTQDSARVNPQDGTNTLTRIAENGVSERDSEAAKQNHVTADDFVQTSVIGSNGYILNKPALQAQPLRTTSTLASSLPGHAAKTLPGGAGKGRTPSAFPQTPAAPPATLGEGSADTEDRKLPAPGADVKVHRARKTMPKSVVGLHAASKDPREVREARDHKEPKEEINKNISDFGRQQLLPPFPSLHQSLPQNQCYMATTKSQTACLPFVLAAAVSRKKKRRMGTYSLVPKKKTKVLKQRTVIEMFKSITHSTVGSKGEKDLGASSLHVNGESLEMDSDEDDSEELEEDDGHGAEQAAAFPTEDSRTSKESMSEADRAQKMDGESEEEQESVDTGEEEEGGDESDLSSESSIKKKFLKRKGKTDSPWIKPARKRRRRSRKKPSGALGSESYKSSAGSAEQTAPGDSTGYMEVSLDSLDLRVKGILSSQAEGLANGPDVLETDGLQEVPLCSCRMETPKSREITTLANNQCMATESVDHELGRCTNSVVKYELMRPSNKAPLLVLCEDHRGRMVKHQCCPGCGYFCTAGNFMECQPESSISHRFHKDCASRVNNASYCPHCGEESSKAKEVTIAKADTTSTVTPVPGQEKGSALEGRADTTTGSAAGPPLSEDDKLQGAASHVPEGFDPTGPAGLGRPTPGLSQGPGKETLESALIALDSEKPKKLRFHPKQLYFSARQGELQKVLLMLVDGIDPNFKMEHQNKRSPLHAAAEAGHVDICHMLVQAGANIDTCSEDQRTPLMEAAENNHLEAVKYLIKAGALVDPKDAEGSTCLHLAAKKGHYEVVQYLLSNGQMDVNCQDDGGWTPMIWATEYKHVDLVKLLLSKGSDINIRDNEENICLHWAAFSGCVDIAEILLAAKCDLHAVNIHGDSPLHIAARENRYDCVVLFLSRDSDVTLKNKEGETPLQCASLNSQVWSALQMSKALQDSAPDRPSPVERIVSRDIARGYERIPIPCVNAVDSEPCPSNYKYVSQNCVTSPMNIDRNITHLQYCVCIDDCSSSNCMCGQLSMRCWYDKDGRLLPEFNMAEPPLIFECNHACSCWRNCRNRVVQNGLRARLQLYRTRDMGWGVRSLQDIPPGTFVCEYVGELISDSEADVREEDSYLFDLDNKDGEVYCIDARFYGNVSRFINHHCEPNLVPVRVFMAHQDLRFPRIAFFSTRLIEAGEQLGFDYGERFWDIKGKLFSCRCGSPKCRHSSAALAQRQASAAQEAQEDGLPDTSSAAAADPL

Row | SMILES | IC50 (human EHMT2 913-1193) [µM] | IC50 (EHMT1) [µM]
1 | CNc1ccnc(Nc2ccc(OC)c(OCc3noc(C4CC4)n3)c2)n1 [Compound 433, N^2-(3-((5-cyclopropyl-1,2,4-oxadiazol-3-yl)methoxy)-4-methoxyphenyl)-N^4-methylpyrimidine-2,4-diamine] | > 10 | 1 to 10
2 | CNc1ccnc(Nc2ccc(OC)c(OCc3cn(C4CC4)nn3)c2)n1 [Compound 434, N^2-(3-((1-cyclopropyl-1H-1,2,3-triazol-4-yl)methoxy)-4-methoxyphenyl)-N^4-methylpyrimidine-2,4-diamine] | > 10 | > 10
3 | CNc1cc(C)nc(Nc2ccc(OC)c(OCC3CCN(CC4CC4)CC3)c2)n1 [Compound 436, N^2-(3-((1-(cyclopropylmethyl)piperidin-4-yl)methoxy)-4-methoxyphenyl)-N^4,6-dimethylpyrimidine-2,4-diamine] | 1 to 10 | > 10
4 | CNc1cc(C)nc(Nc2ccc(OC)c(OCC3CNC3)c2)n1 [Compound 437, N^2-(3-(azetidin-3-ylmethoxy)-4-methoxyphenyl)-N^4,6-dimethylpyrimidine-2,4-diamine] | 0.1 to 1 | < 0.1
5 | CNc1ccnc(Nc2ccc(OC)c(OCCOC3CCCC3)c2)n1 [Compound 440, N^2-(3-(2-(cyclopentyloxy)ethoxy)-4-methoxyphenyl)-N^4-methylpyrimidine-2,4-diamine] | > 10 | > 10
6 | CNc1cc(COC)nc(Nc2ccc(OC)c(OCCCN3CCCC3)c2)n1 [Compound 441, N^2-(4-methoxy-3-(3-(pyrrolidin-1-yl)propoxy)phenyl)-6-(methoxymethyl)-N^4-methylpyrimidine-2,4-diamine] | 0.1 to 1 | 0.1 to 1
7 | CCN1CC(COc2cc(Nc3nc(C)cc(NC)n3)ccc2OC)C1 [Compound 444] | < 0.1 | < 0.1
8 | CNc1cc(C)nc(Nc2ccc(OC)c(OCC3CN(CC4CC4)C3)c2)n1 [Compound 445, N^2-(3-((1-(cyclopropylmethyl)azetidin-3-yl)methoxy)-4-methoxyphenyl)-N^4,6-dimethylpyrimidine-2,4-diamine] | 0.1 to 1 | 0.1 to 1
9 | COc1ccc(Nc2nc(C)cc(O)n2)cc1OCCCN1CCCC1 [Compound 447, 2-((4-methoxy-3-(3-(pyrrolidin-1-yl)propoxy)phenyl)amino)-6-methylpyrimidin-4-ol] | > 10 | > 10
10 | COc1ccc(Nc2nc(C)cc(NCC3CCOCC3)n2)cc1OCC1CCN(C)C1 (stereo not drawn) [Compound 451, N^2-(4-methoxy-3-((1-methylpyrrolidin-3-yl)methoxy)phenyl)-6-methyl-N^4-((tetrahydro-2H-pyran-4-yl)methyl)pyrimidine-2,4-diamine] | 0.1 to 1 | < 0.1
11 | CNc1cc(C)nc(Nc2ccc(OC)c(OCC3CCCO3)c2)n1 (stereo not drawn) [Compound 452, N^2-(4-methoxy-3-((tetrahydrofuran-2-yl)methoxy)phenyl)-N^4,6-dimethylpyrimidine-2,4-diamine] | > 10 | 1 to 10

Second part, the molecule after the results:

Row | IC50 (human EHMT2 913-1193) [µM] | IC50 (EHMT1) [µM] | SMILES
12 | 1 to 10 | 1 to 10 | CNc1cc(C)nc(Nc2ccc(OC)c(OCC3CCN(C)CC3)c2)n1 [Compound 435, N^2-(4-methoxy-3-((1-methylpiperidin-4-yl)methoxy)phenyl)-N^4,6-dimethylpyrimidine-2,4-diamine]
13 | < 0.1 | < 0.1 | CNc1cc(C)nc(Nc2ccc(OC)c(OCC3CN(C)C3)c2)n1 [Compound 442, N^2-(4-methoxy-3-((1-methylazetidin-3-yl)methoxy)phenyl)-N^4,6-dimethylpyrimidine-2,4-diamine]
14 | > 10 | > 10 | CNc1cc(C)nc(Nc2ccc(OC)c(OC3CCN(CC4CC4)CC3)c2)n1 [Compound 443]
15 | < 0.1 | < 0.1 | CNc1cc(C)nc(Nc2ccc(OC)c(OCC3CCN(C4CCC4)C3)c2)n1 (stereo not drawn) [Compound 446, N^2-(3-((1-cyclobutylpyrrolidin-3-yl)methoxy)-4-methoxyphenyl)-N^4,6-dimethylpyrimidine-2,4-diamine]
16 | > 10 | > 10 | COc1ccc(Nc2cc(C)nc(O)n2)cc1OCCCN1CCCC1 [Compound 448, 4-((4-methoxy-3-(3-(pyrrolidin-1-yl)propoxy)phenyl)amino)-6-methylpyrimidin-2-ol]
17 | 0.1 to 1 | 0.1 to 1 | CNc1cc(C)nc(Nc2ccc(OC)c(OCC3CCN(C4COC4)C3)c2)n1 (stereo not drawn) [Compound 449, N^2-(4-methoxy-3-((1-(oxetan-3-yl)pyrrolidin-3-yl)methoxy)phenyl)-N^4,6-dimethylpyrimidine-2,4-diamine]
18 | 1 to 10 | > 10 | CNc1cc(N2CCCC2)nc(Nc2ccc(OC)c(OCCCN3CCCC3)c2)n1 [Compound 450, N^2-(4-methoxy-3-(3-(pyrrolidin-1-yl)propoxy)phenyl)-N^4-methyl-6-(pyrrolidin-1-yl)pyrimidine-2,4-diamine]
